Laboratory results published in patent publication US4888431A, “Process for the preparation of substituted fused tetrahydrocarbazole acetic acid derivatives” (American Home Products Corporation, priority 1989, dated 1989).

Experiments:
Male Swiss albino mice = test: Drug Effects on Phenylbenzoquinone-induced Writhing in Mice; assay type: in vivo; conditions: 10 mg/kg, p.o., PBQ i.p. 60 minutes after dosing, writhes counted over 15 minutes
Experimental: A further test used to determine the utility of the compounds of the present invention is designated: Drug Effects on Phenylbenzoquinone-induced Writhing in Mice
The objective of this test is to determine the ability of test drugs to inhibit the nociceptive (pain) response of mice injected with a chemical irritant. This test is a primary screen for both peripheral and centrally acting analgesic drugs.
Male Swiss albino mice (15-25 g) are used. The animals are fasted for 18 hours prior to use but have free access to water.
Drugs are dissolved or suspended according to their solubility in 0.5% Tween 80 in distilled water. They are administered by gastric gavage in a volume of 5 mL/kg. For primary screening all drugs are administered at the arbitary dosage of 25 mg/kg, p.o. to a group of 10 mice.
A modification of the method of Siegmund et al, Proc. Soc. Exp. Biol. Med., 95, 729-731 (1957) is used. Groups of 5 mice are dosed with the test compound or vehicle control. Sixty minutes later the animals are injected i.p. with 0.3 mL/20 g body weight of a 0.02% solution of phenylbenzoquinone (PBQ; 2-phenyl-1,4-benzoquinone) and placed in individual observation boxes. The number of writhing or abdominal squirming movements made by each mouse during the following 15 minute period is counted. The experiment is repeated with another group of 5 mice and the mean number of writhes per mouse for a group of 10 mice is calculated.
Drug treated and vehicle-treated control groups are compared and the percentage inhibition of writhing conferred by the drug is calculated: [formula] where c=mean number of writhes in the control group where t=mean number of writhes in the test drug group

Male Sprague Dawley rats = test: Preventative Adjuvant Edema (acute anti-inflammatory effect, hind paw edema volume); assay type: in vivo; conditions: 25 mg/kg, p.o., edema volume day 0 to day 3
Experimental: This test is a primary screen for anti-inflammatory drugs.
Male Sprague Dawley rats (180-200 g) are used. The animals have free access to water but food is withdrawn 18 hours before testing.
Freund's complete adjuvant is prepared by suspending 5 mg of killed and dried Mycobacterium butyricum (Difco) in 1 ml liquid paraffin. The test compounds are dissolved in distilled water or suspended in 0.5% Tween 80 in distilled water according to their solubility. For primary screening all drugs are administered by gastric lavage at the arbitrary dosage of 25 mg/kg, p.o. in a volume of 0.5 mL/100 g body weight to groups of 10 animals.
The method is essentially that described by Wax et al, J. Pharmacol. Exp. Ther., 192, 166-171 (1975). Groups of rats are injected intradermally in the left hind paw with 0.1 mL of Freund's complete adjuvant. The test compound or vehicle is administered immediately before the adjuvant, 24 hours and 48 hours after the adjuvant (days 0, 1 and 2). The injected hind paw volume is measured before the injection of adjuvant and 24 hours after the last drug administration (day 3) by means of a plethysmometer (Buxco Electronics Inc.). The difference between the hind paw volume on day 0 and day 3 represents the edema volume. Etodolac (25 mg/kg, p.o.) is included as a positive control.
The mean edema volume (expressed as mL ±SEM) is calculated for each group and the percentage inhibition of inflammation conferred by the drug is calculated: [formula] where c is the mean edema volume for the untreated controls and t is the mean edema volume for the drug treated group.

| Compound | inhibition (Phenylbenzoquinone Writhing in Mice) (Male Swiss albino mice) [%] | inhibition (Preventative Adjuvant Edema) (Male Sprague Dawley rats) [%] |
| --- | --- | --- |
| Cc1c(Cl)ccc2c3c([nH]c12)[C@]1(CC(=O)O)CC[C@@H]1CC3Cc1ccccc1 (relative stereo) [Example 1, cis-7-Chloro-1,2,2a,3,4,9-hexahydro-8-methyl-4-(phenylmethyl)-9bH-cyclobuta[a]carbazole-9b-acetic Acid] | 73 | 26 |
| Cc1c(Cl)ccc2c3c([nH]c12)[C@@]1(CC(=O)O)CC[C@H]1CC3 (relative stereo) [Example 2, cis-7-Chloro-1,2,2a,3,4,9-hexahydro-8-methyl-9bH-cyclobuta[a]carbazole-9b-acetic Acid] | 56 | 85 |
| O=C(O)C[C@]12CC[C@H]1CCc1c2[nH]c2ccccc12 (relative stereo) [Example 4, cis-1,2,2a,3,4,9-Hexahydro-9bH-cyclobuta[a]carbazole-9b-acetic Acid] | 21 | 64 |
| CCCc1cc(C(C)=O)cc2c3c([nH]c12)[C@@]1(CC(=O)O)CC[C@H]1CC3 (relative stereo) [Example 5, cis-6-Acetyl-1,2,2a,3,4,9-hexahydro-8-propyl-9bH-cyclobuta[a]carbazole-9b-acetic Acid] | 56 | – |
| CCc1cccc2c3c([nH]c12)[C@]1(CC(=O)O)C[C@@H]1CC3 (relative stereo) [Example 6, (1a. α,8b. α)-7-Ethyl-1,1a,2,3,8,8b-hexahydrocyclopropa[a]carbazole-8b-acetic Acid] | 27 | 13 |
| O=C(O)C[C@@]12CC[C@@H]1CC(Cc1ccccc1)c1c2[nH]c2ccccc12 (relative stereo) [Example 7, cis-1,2,2a,3,4,9-Hexahydro-4-(phenylmethyl)-9bH-cyclobuta[a]carbazole-9b-acetic Acid] | 0 | – |
